Assay results reported in ChEMBL document CHEMBL1123903, “Synthesis and antimalarial effects of 4-[(7-chloro-4-quinolinyl)amino]-2-[(diethylamino)methyl] -6-alkylphenols and their N omega-oxides” (1987).

What was measured:
Type in all cases: functional
Mus musculus [1] = test: Number of mice surviving at 60 days postinfection when administered as a single dose of 640 mg/kg (sc) 72-h post infection
Mus musculus [2] = test: Number of mice surviving at 60 days postinfection when administered as a single dose of 80 mg/kg (sc) 72-h post infection
Mus musculus [3] = test: Number of mice surviving at 60 days postinfection when administered as a single dose of 160 mg/kg (sc) 72-h post infection
Plasmodium berghei [4] = test: Change in mean survival time of trophozoite-induced Plasmodium berghei infection after 20 mg/kg subcutaneous dose
Plasmodium berghei [5] = test: Change in mean survival time of trophozoite-induced Plasmodium berghei infection after 40 mg/kg subcutaneous dose
Mus musculus [6] = test: Number of mice surviving at 60 days postinfection when administered as a single dose of 320 mg/kg (sc) 72-h post infection
Mus musculus [7] = test: Antimalarial activity tested against trophozoite induced Plasmodium berghei in mice (Mus musculus) expressed as change in mean survival time after a single dose of 640 mg/kg (subcutaneously); details: route subcutaneous
Plasmodium berghei [8] = test: Change in mean survival time of trophozoite-induced Plasmodium berghei infection after 160 mg/kg subcutaneous dose
Mus musculus [9] = test: Antimalarial activity tested against trophozoite induced Plasmodium berghei in mice (Mus musculus) expressed as change in mean survival time after a single dose of 320 mg/kg (subcutaneously); details: route subcutaneous
Plasmodium berghei [10] = test: Change in mean survival time of trophozoite-induced Plasmodium berghei infection after 80 mg/kg subcutaneous dose
Mus musculus [11] = test: Number of mice surviving at 60 days postinfection when administered as a single dose of 320 mg/kg (sc) 72-h post infection (delta MST)
Mus musculus [12] = test: Number of mice surviving at 60 days postinfection when administered as a single dose of 160 mg/kg (sc) 72-h post infection (delta MST)
Mus musculus [13] = test: Antimalarial activity tested against trophozoite induced Plasmodium berghei in mice (Mus musculus) expressed as change in mean survival time after a single dose of 10 mg/kg (subcutaneously); details: route subcutaneous
Mus musculus [14] = test: Number of mice surviving at 60 days postinfection when administered as a single dose of 80 mg/kg (sc) 72-h post infection (delta MST)
Mus musculus [15] = test: Number of mice surviving at 60 days postinfection when administered as a single dose of 40 mg/kg (sc) 72-h post infection (delta MST)
[16] = Antimalarial activity tested against trophozoite induced Plasmodium berghei in mice (Mus musculus) expressed as change in mean survival time after a single dose of 40 mg/kg (subcutaneously); details: route subcutaneous
Mus musculus [17] = test: Number of mice surviving at 60 days postinfection when administered as a single dose of 640 mg/kg (sc) 72-h post infection (delta MST)
Mus musculus [18] = test: Number of mice surviving at 60 days postinfection when administered as a single dose of 20 mg/kg (sc) 72-h post infection (delta MST)

Row | SMILES | Cures (Mus musculus [1]) | Cures (Mus musculus [2]) | Cures (Mus musculus [3]) | Delta MST (Plasmodium berghei [4]) | Delta MST (Plasmodium berghei [5]) | Cures (Mus musculus [6]) | Delta MST (Mus musculus [7]) | Delta MST (Plasmodium berghei [8]) | Delta MST (Mus musculus [9]) | Delta MST (Plasmodium berghei [10]) | Cures (Mus musculus [11]) | Cures (Mus musculus [12]) | Delta MST (Mus musculus [13]) | Cures (Mus musculus [14]) | Cures (Mus musculus [15]) | Delta MST [16] | Cures (Mus musculus [17]) | Cures (Mus musculus [18])
1 | CCN(CC)Cc1cc(Nc2ccnc3cc(Cl)ccc23)ccc1O.Cl | 5 | 2 | 5 | 8.3 days | 11.9 days | 5 |  |  |  |  |  |  |  |  |  |  |  | 
2 | CCN(CC)Cc1cc(Nc2cc[n+]([O-])c3cc(Cl)ccc23)cc(Sc2ccc(Cl)cc2)c1O |  |  |  | 0.5 days | 4.1 days |  | 14.4 days | 7.6 days | 9 days | 3.4 days |  |  |  |  |  |  |  | 
3 | CCN(CC)Cc1cc(Nc2cc[n+]([O-])c3cc(Cl)ccc23)cc(C2CCCCC2)c1O | 5 |  |  | 0.5 days | 3.9 days |  |  | 22.4 days | 24.9 days | 8.5 days | 4 | 3 |  |  |  |  |  | 
4 | CCN(CC)Cc1cc(Nc2ccnc3cc(Cl)ccc23)cc(C(C)(C)C)c1O |  |  |  | 0.1 days | 0.5 days |  | 6.3 days | 1.9 days | 5.9 days | 1.7 days |  |  |  |  |  |  |  | 
5 | CCN(CC)Cc1cc(Nc2cc[n+]([O-])c3cc(Cl)ccc23)cc(C(C)(C)C)c1O |  |  |  | 0.1 days | 1.7 days |  | 6.1 days | 4.1 days | 6.7 days | 2.9 days |  |  | 3.7 days |  |  |  |  | 
6 | CCc1cc(Nc2cc[n+]([O-])c3cc(Cl)ccc23)cc(CN(CC)CC)c1O | 4 |  |  | 5.5 days | 13.2 days |  | 1.4 days | 13.4 days | 13.4 days | 10.9 days | 3 | 2 | 3.7 days | 3 | 1 |  |  | 
7 | CCN(CC)Cc1cc(Nc2ccnc3cc(Cl)ccc23)c2c(c1O)CCCC2 | 3 |  |  | 12.6 days | 12.8 days |  |  | 15.1 days | 28.3 days | 14.8 days | 3 | 2 | 6.8 days | 2 | 2 |  |  | 
8 | CCN(CC)Cc1cc(Nc2ccnc3cc(Cl)ccc23)cc(C(C)C)c1O | 5 |  | 5 | 18.1 days | 27.9 days | 5 |  |  |  | 25.4 days |  |  | 11.1 days | 4 | 3 |  |  | 
9 | CCN(CC)Cc1cc(Nc2ccnc3cc(Cl)ccc23)cc(Cc2ccccc2)c1O |  |  |  | 0.2 days | 1.7 days |  | 7.9 days | 3.7 days | 7.8 days | 3.4 days |  |  |  |  |  |  |  | 
10 | CCc1cc(Nc2ccnc3cc(Cl)ccc23)cc(CN(CC)CC)c1O |  |  |  | 12.1 days |  |  | 27.4 days | 14.4 days | 34.4 days | 20.7 days | 4 | 4 | 6.1 days | 2 | 1 | 12.4 days | 4 | 
11 | CCN(CC)Cc1cc(Nc2cc[n+]([O-])c3cc(Cl)ccc23)cc(C)c1O | 5 |  |  | 7.6 days | 14.3 days |  |  | 13 days | 19 days | 11.5 days | 3 | 3 | 1.4 days | 1 | 2 |  |  | 
12 | CCN(CC)Cc1cc(Nc2ccnc3cc(Cl)ccc23)cc(C)c1O | 5 |  |  | 10.4 days | 13 days |  |  | 20.7 days | 17.2 days | 13.7 days | 3 | 4 | 7 days | 4 | 1 |  |  | 
13 | CCN(CC)Cc1cc(Nc2ccnc3cc(Cl)ccc23)cc(Sc2ccc(Cl)cc2)c1O |  |  |  | 3 days | 7.3 days |  | 13.1 days | 10.1 days |  | 8.8 days |  |  |  |  |  |  |  | 
14 | CCN(CC)Cc1cc(Nc2ccnc3cc(Cl)ccc23)cc(C2CCCCC2)c1O | 5 |  | 5 | 0.5 days | 5.7 days | 5 |  |  |  | 10.6 days |  |  |  | 2 |  |  |  | 
15 | CCN(CC)Cc1cc(Nc2cc[n+]([O-])c3cc(Cl)ccc23)cc(C(C)C)c1O |  |  |  | 11.8 days | 15.5 days |  | 23.7 days | 21.7 days | 29.7 days | 15.5 days | 1 | 1 | 3 days | 1 | 1 |  | 4 | 
16 | CCC(C)c1cc(Nc2ccnc3cc(Cl)ccc23)cc(CN(CC)CC)c1O (centres undefined) | 5 |  |  | 18 days | 27.7 days | 5 |  | 40.2 days |  | 29.4 days |  | 1 | 9.8 days | 2 | 2 |  |  | 
17 | CCC(C)c1cc(Nc2cc[n+]([O-])c3cc(Cl)ccc23)cc(CN(CC)CC)c1O (centres undefined) | 5 |  |  | 12.6 days | 20.9 days |  |  | 30 days | 39.7 days | 21.9 days | 3 | 2 | 4.6 days |  |  |  |  | 
18 | CC(C)(C)NCc1cc(Nc2ccnc3cc(Cl)ccc23)cc(-c2ccc(Cl)cc2)c1O [TEBUQUINE] |  |  |  | 14.9 days | 19.9 days |  | 17.1 days | 14.9 days | 16.4 days | 14.9 days | 1 | 2 |  | 3 | 4 |  |  | 3
